No end group written: not given here.
What was measured:
[1] = circulating GLP-1; inactivated by N-terminal cleavage by DPP-IV; cited from earlier work
tetanus toxoid (TT) = system: tetanus toxoid (TT); parameters: species or system mice (C57/BL6); conditions: mouse, in vivo
TT = system: TT; parameters: species or system mice (C57/BL6); conditions: mouse, in vivo
tetanus toxin = system: tetanus toxin; parameters: species or system mice (C57/BL6); conditions: mouse, in vivo
VIP = conditions: in man; cited from earlier work

| Substance | half life [1] | anti-TT serum IgA response (GMT) (tetanus toxoid (TT)) | range of anti-TT IgG titer (TT) | paralysis after tetanus toxin challenge (tetanus toxin) | survivors after tetanus toxin challenge (tetanus toxin) | VIP agonist activity (VIP) |
| --- | --- | --- | --- | --- | --- | --- |
| GLP-1 (HDRHAGTTSDVSSYGAAKAWVKGRG; listed as Homo sapiens) | several minutes | 959 | 16,384-131,072 | no sign of paralysis | 8/8 | – |
| VIP 2-28: Gastrointestinal peptide, residues 2-28 of Vasoactive Intestinal Peptide (SDAVFTDNYTRLRKQMAVKKYLNSILN; ends and bridges not checked; UniProt P01282 126-152, looked up, fragment) | – | – | – | – | – | full VIP agonist |

Source: patent US20080311138A1 (priority 2004, published 2008)
